From patent US20130065818A1, “Arylamide Compounds And Compositions And Uses Thereof” (POLYMEDIX, priority 2006, published 2013)
Converted amounts (≈) assume the structure as drawn. Read-outs that look alike come from different tables or passages of the source.

What was measured:
[1] = system: E. coli D31; assay: MIC, control bacteria (Example 8); assay type: cell-based
Method: (§1) • Mueller-Hinton Broth in tubes was inoculated with 25 ocular isolates of Staphylococcus aureus fluoroquinolone-susceptible, Staphylococcus aureus fluoroquinolone-resistant, Staphylococcus epidermidis (Coagulase-negative Staphylococcus) fluoroquinolone-susceptible, Staphylococcus epidermidis (Coagulase-negative Staphylococcus) fluoroquinolone-resistant, Pseudomonas aeruginosa and Serratia marcescens, plus two controls (Staphylococcus aureus and E. coli) and incubated at 37° C. overnight on a shaker set at 250 rpm.
(§2) Control Bacteria—The two control bacteria (Staphylococcus aureus and E. coli) were treated as above.
(§3) Control Bacteria Set #1—this set of control bacteria were treated as the Streptococcus pneumoniae, Streptococcus viridans and Moraxella species (including Moraxella catarrhalis) test isolates above; the control bacteria underwent the same conditions as the test Streptococcus pneumoniae, Streptococcus viridans and Moraxella species (including Moraxella catarrhalis) isolates. This set of control bacteria was to determine whether there was a difference in the MICs by performing the MIC determinations in 2% lysed horse red blood cells with the standard method performed in Mueller-Hinton broth.
(§4) Control Bacteria Set #2—the control bacteria were added to 5 ml of Mueller-Hinton Broth without the 2% lysed horse red blood cells to achieve the standard inoculum concentration. This set of control bacteria is the normal control to determine whether the compounds are at the target MICs.
(§5) Control Bacteria Set #1—this set of control bacteria were treated as the Haemophilus influenzae test isolates above; the control bacteria underwent the same conditions as the test Haemophilus influenzae isolates. This set of control bacteria is to determine whether there was a difference in the MICs by performing the MIC determinations in HTM broth with the standard method performed in Mueller-Hinton broth.
(§6) Control Bacteria Set #2—the control bacteria were added to 5 ml of Mueller-Hinton Broth to achieve the standard inoculum concentration. This set of control bacteria is the normal control to determine whether the compounds are at the target MICs.
(§7) Ninety μl of the bacterial suspensions was dispensed in each well from column 1 to column 12. Each bacterial isolate was placed in one row of a 96 well polypropylene plate containing the test agents. The plates were placed on shaker at 15 minutes at room temperature, and then incubated at 37° C. overnight. MICs were determined visually as the lowest concentration of drug that inhibits visible bacterial growth.

[2] = system: S. aureus ATCC 27660; assay: MIC, control bacteria (Example 8); assay type: cell-based; details: Control Bacteria S. aureus ATCC 27660
Method: as §1, §2, §3, §4, §5, §6, §7

With `N=C(N)NCCCCC(=O)Nc1cc(C(F)(F)F)cc(NC(=O)c2cnc(C(=O)Nc3cc(C(F)(F)F)cc(NC(=O)CCCCNC(=N)N)c3SCCN)cn2)c1SCCN` [Oligomer 5] the “Decrease of activity by addition of 2% lysed horse red blood cells to Mueller-Hinton broth” value ([1]; Control Bacteria E. coli D31) was “increase or have no effect”, the “Decrease of activity by use of HTM broth” value ([1]; Control Bacteria E. coli D31) was “no effect” and the MIC ([1]; Control Bacteria Set #1, run with Haemophilus influenzae MIC test, read-out: MIC) was 16 µg/mL (≈ 17.4 µM). The MIC ([1]; E. coli D31, Control for MIC Test SA-FQR, first batch) was 4 µg/mL (≈ 4.36 µM), the MIC ([1]; E. coli D31, Control for MIC Test SA-FQS, first batch) was 16 µg/mL (≈ 17.4 µM) and the MIC ([1]; E. coli D31, new batches, Control Only 1) was 8 µg/mL (≈ 8.72 µM). It also gave an MIC ([1]; E. coli D31, new batches, Control Only 2) of 8 µg/mL (≈ 8.72 µM), an MIC ([1]; E. coli D31, new batches, Control Only 3) of 8 µg/mL (≈ 8.72 µM) and an MIC ([1]; E. coli D31, new batches, Control Only 4) of 16 µg/mL (≈ 17.4 µM). For the same molecule, the MIC ([1]; Escherichia coli, D31, Control Bacteria Set #1, run with Moraxella MIC test, read-out: MIC) was 2 µg/mL (≈ 2.18 µM), the MIC ([1]; Escherichia coli, D31, Control Only 1, read-out: MIC of control bacteria on day of MIC testing) was 8 µg/mL and the MIC ([1]; Escherichia coli, D31, Control Only 2, read-out: MIC of control bacteria on day of MIC testing) was 8 µg/mL. For the same molecule, the MIC ([1]; Escherichia coli, D31, Control Only 3, read-out: MIC of control bacteria on day of MIC testing) was 8 µg/mL, the MIC ([1]; Escherichia coli, D31, Control Only 4, read-out: MIC of control bacteria on day of MIC testing) was 16 µg/mL and the MIC ([1]; Escherichia coli, D31, E. coli D31, Control Bacteria Set #1 (same conditions as test isolates), run with Streptococcus pneumoniae MIC test, read-out: MIC) was 2 µg/mL (≈ 2.18 µM). For the same molecule, the MIC ([1]; Escherichia coli, D31, E. coli D31, Control Bacteria Set #1 (same conditions as test isolates), run with Streptococcus viridans group MIC test, read-out: MIC) was 2 µg/mL (≈ 2.18 µM), the MIC ([1]; Escherichia coli, D31, E. coli D31, Control Bacteria Set #2 (Mueller-Hinton Broth), run with Streptococcus pneumoniae MIC test, read-out: MIC) was 16 µg/mL (≈ 17.4 µM) and the MIC ([1]; Escherichia coli, D31, E. coli D31, Control Bacteria Set #2 (Mueller-Hinton Broth), run with Streptococcus viridans group MIC test, read-out: MIC) was 16 µg/mL (≈ 17.4 µM). For the same molecule, the MIC ([1]; Escherichia coli, D31, E. coli D31, control bacteria run with Pseudomonas aeruginosa MIC test, read-out: MIC) was 8 µg/mL (≈ 8.72 µM), the MIC ([1]; Escherichia coli, D31, E. coli D31, control bacteria run with S. aureus fluoroquinolone-resistant MIC test, read-out: MIC) was 4 µg/mL (≈ 4.36 µM) and the MIC ([1]; Escherichia coli, D31, E. coli D31, control bacteria run with S. aureus fluoroquinolone-susceptible MIC test, read-out: MIC) was 16 µg/mL (≈ 17.4 µM). For the same molecule, the MIC ([1]; Escherichia coli, D31, E. coli D31, control bacteria run with S. epidermidis fluoroquinolone-resistant MIC test, read-out: MIC) was 4 µg/mL (≈ 4.36 µM), the MIC ([1]; Escherichia coli, D31, E. coli D31, control bacteria run with S. epidermidis fluoroquinolone-susceptible MIC test, read-out: MIC) was 4 µg/mL (≈ 4.36 µM) and the MIC ([1]; Escherichia coli, D31, E. coli D31, control bacteria run with Serratia marcescens MIC test, read-out: MIC) was 4 µg/mL (≈ 4.36 µM). It also gave an MIC ([1]; Escherichia coli, D31, E. coli D31, MIC previously obtained (target MIC), printed in parentheses, read-out: MIC for Control Bacteria within the parentheses) of 1.56 µg/mL (≈ 1.7 µM), an MIC ([1]; Escherichia coli, D31, E. coli D31, read-out: MIC) of 1.56 µg/mL (≈ 1.7 µM) and an MIC ([1]; Escherichia coli, D31, control for MIC test HI (Control Bacteria Set #2), read-out: MIC of control bacteria on day of MIC testing) of 16 µg/mL. For the same molecule, the MIC ([1]; Escherichia coli, D31, control for MIC test MS (Control Bacteria Set #2), read-out: MIC of control bacteria on day of MIC testing) was 16 µg/mL, the MIC ([1]; Escherichia coli, D31, control for MIC test PA, read-out: MIC of control bacteria on day of MIC testing) was 8 µg/mL and the MIC ([1]; Escherichia coli, D31, control for MIC test SA-FQR, read-out: MIC of control bacteria on day of MIC testing) was 4 µg/mL. For the same molecule, the MIC ([1]; Escherichia coli, D31, control for MIC test SA-FQS, read-out: MIC of control bacteria on day of MIC testing) was 16 µg/mL, the MIC ([1]; Escherichia coli, D31, control for MIC test SE-FQR, read-out: MIC of control bacteria on day of MIC testing) was 4 µg/mL and the MIC ([1]; Escherichia coli, D31, control for MIC test SE-FQS, read-out: MIC of control bacteria on day of MIC testing) was 4 µg/mL. The MIC ([1]; Escherichia coli, D31, control for MIC test SM, read-out: MIC of control bacteria on day of MIC testing) was 4 µg/mL, the MIC ([1]; Escherichia coli, D31, control for MIC test SP, read-out: MIC of control bacteria on day of MIC testing) was 16 µg/mL and the MIC ([1]; Escherichia coli, D31, control for MIC test SV, read-out: MIC of control bacteria on day of MIC testing) was 16 µg/mL. The MIC ([1]; Escherichia coli, D31, reference MIC printed in parentheses beside the day's control value, read-out: MIC for Control Bacteria (within the parentheses)) was 1.56 µg/mL (≈ 1.7 µM) and the “Decrease of activity by addition of 2% lysed horse red blood cells to Mueller-Hinton broth” value [2] was “increase or have no effect”.
